Measurements as given in US9914724B2, “C-aryl glycosid derivatives, pharmaceutical composition, preparation process and uses thereof” (SHANGHAI DE NOVO PHARMATECH CO. LTD., priority 2014, dated 2018).

Experiments:
SGLT-1 = molecular target: T1, SGLT-1 (Homo sapiens, UniProt P13866); assay: [14C]-AMG absorption in stable SGLT1 expressing Flp-in CHO cells (SGLT-1 activity screening assay); format: cell-based; conditions: 14C-AMG uptake, 37° C. 1 h, 1% DMSO
T1 sequence (P13866 1-664): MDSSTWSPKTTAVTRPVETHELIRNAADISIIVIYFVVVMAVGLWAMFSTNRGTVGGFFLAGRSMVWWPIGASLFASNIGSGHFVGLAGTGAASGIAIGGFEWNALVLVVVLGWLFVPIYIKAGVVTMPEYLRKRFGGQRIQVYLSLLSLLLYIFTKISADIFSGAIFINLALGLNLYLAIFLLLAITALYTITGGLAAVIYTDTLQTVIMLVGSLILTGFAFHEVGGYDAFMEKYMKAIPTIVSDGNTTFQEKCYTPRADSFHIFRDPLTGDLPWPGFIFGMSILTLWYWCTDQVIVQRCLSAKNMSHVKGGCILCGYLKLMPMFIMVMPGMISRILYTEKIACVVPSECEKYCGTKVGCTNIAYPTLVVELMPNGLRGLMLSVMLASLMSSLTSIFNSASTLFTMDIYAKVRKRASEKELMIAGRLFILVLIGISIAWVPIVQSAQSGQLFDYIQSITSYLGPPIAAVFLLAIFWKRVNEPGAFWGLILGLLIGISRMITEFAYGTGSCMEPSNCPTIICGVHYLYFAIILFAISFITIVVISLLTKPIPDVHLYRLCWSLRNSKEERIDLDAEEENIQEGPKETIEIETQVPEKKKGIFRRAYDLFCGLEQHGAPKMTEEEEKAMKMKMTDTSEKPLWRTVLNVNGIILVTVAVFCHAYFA
Source text: (§1) Example 1: [^14C]-AMG Absorption in Stable SGLT1 and SGLT2 Expressing Flp-in CHO Cells (SGLT-1 and SGLT-2 Activity Screening Assay)
(§2) SGLT-1 and SGLT-2 cDNA clones were purchased from OriGene. After sequencing verification, the expression vectors were constructed based on pcDNA5/FRT using conventional molecular biology method. The expression vector was transfected into Flp-in CHO cells using Lipofectamin 2000. The transfected cells were subject hygromycin selection. The single clones of cells were selected by serial dilutions 4-5 weeks after transfection. The expression of SGLT-1 ? SGLT-2 were confirmed by RT-PCR and functional assay and cell line with strong signal was selected for subsequent study.
(§3) Culture of stable SGLT-1 and SGLT-2 expressing Flp-in CHO cell line: the culture media contain F12 medium (Invitrogen), 500 μg/ml hygromycin (Calbiochem) and 10% FBS (Invitrogen). Upon 80% confluency, the cells in the T75 flask were washed three times with PBS (Invitrogen), and 5 mL of Trpsin-EDTA solution (Invitrogen) was then added. The flask was gently rotated so that all the cells were submerged in the digestion solution. After the cells detach, 10 mL of culture medium was added and single cell suspension was prepared by pipetting up and down. The cell concentration was adjusted to 3×10^5/mL, 100 μL/well was added onto clear bottom 96-well plate (Corning).
(§4) The cells were ready for absorption assay once they attached after overnight culture. 12 h after cell plating, the cells were washed once with 150 μL/well absorption solution KRH-NMG (120 mM NMG, 4.7 mM KCl, 1.2 mM MgCl2, 2.2 mM CaCl2, 10 mM HEPES, pH 7.4 1 mM Tris). The solution was then removed from the well. 2.5 μCi/mL ^14C labeled AMG (PerkinElmer) Buffer KRH-Na+ (120 mM NaCl, 4.7 mM KCl, 1.2 mM MgCl2, 2.2 mM CaCl2, 10 mM HEPES, pH 7.4 1 mM Tris) was added at […] after washing with Buffer KRH-Na+ and KRH-NMG. The corresponding compound I was immediately added at 5 μL/well, ensuring the concentration of Dimethyl Sulfoxide was 1% (v/v). The plate was subsequently incubated at 37° C. for 1 h, after which 150 μL of ice cold wash buffer (120 mM NaCl, 4.7 mM KCl, 1.2 mM MgCl2, 2.2 mM CaCl2, 10 mM HEPES, 0.5 mM phlorizin, pH 7.4 1 mM Tris) was immediately added to terminate the reaction. Each well was washed three times with wash buffer and finally the solution was removed. Caution was taken to avoid cell detachment during the procedure. 20 μL/well of Lysis Buffer (0.1 mM NaOH) was added, the plate was vortexed at 900 rpm for 5 min. 80 μL/well of scintillation solution Microsint40 was added, and vortexed at 900 rpm for 5 min. The radioactivity was assayed using MicroBeta Trilux (PerkinElmer). The data was analyzed and IC50 of the compounds was calculated using XL-fit software.

SGLT-2 = molecular target: T2, SGLT-2 (Homo sapiens, UniProt P31639); assay: [14C]-AMG absorption in stable SGLT2 expressing Flp-in CHO cells (SGLT-2 activity screening assay); format: cell-based; conditions: 14C-AMG uptake, 37° C. 1 h, 1% DMSO
T2 sequence (P31639 1-672): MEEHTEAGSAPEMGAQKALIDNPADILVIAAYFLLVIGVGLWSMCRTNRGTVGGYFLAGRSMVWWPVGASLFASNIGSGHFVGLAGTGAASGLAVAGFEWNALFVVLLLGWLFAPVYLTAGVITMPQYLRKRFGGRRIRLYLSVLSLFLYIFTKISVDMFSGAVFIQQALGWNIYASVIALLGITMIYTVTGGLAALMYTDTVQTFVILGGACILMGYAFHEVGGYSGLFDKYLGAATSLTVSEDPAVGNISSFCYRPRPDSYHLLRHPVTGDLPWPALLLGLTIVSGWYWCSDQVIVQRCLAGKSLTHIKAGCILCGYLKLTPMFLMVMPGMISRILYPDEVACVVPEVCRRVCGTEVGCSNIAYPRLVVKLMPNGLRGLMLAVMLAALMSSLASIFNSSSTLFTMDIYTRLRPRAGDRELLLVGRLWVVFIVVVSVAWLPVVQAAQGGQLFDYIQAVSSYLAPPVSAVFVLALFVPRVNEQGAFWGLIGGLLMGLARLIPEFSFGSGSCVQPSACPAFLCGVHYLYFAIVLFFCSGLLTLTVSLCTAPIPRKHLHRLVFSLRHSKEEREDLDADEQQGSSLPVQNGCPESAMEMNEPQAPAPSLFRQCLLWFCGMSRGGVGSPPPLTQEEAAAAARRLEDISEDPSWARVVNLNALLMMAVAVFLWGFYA
Source text: as §1, §2, §3, §4

| SMILES | IC50 (SGLT-1) | IC50 (SGLT-2) |
| --- | --- | --- |
| Cc1ccc([C@@H]2O[C@H](CO)[C@@H](O)[C@H](O)[C@H]2O)cc1Cc1ccc(OCC2Cc3ccccc3O2)cc1 (stereo partly drawn) [Compound I-25, (2S,3R,4R,5S,6R)-2-(3-(4-((2,3-dihydrobenzofuran-2-yl)methoxy)benzyl)-4-methylphenyl)-6-(hydroxymethyl)tetrahydro-2H-pyran-3,4,5-triol] | 180 nM | 4.1 nM |
| Cc1ccc([C@@H]2O[C@H](CO)[C@@H](O)[C@H](O)[C@H]2O)cc1Cc1ccc(OCC2(C)Cc3ccccc3O2)cc1 (single isomer, unassigned) [Compound I-111] | 34400 nM | > 2000 nM |
| OC[C@H]1O[C@@H](c2ccc(Cl)c(Cc3ccc(OCC4Cc5ccc(F)cc5O4)cc3)c2)[C@H](O)[C@@H](O)[C@@H]1O (stereo partly drawn) [Compound I-33, (2S,3R,4R,5S,6R)-2-(4-chloro-3-(4-((6-fluoro-2,3-dihydrobenzofuran-2-yl)methoxy)benzyl)phenyl)-6-(hydroxymethyl)tetrahydro-2H-pyran-3,4,5-triol] | 599 nM | 6.2 nM |
| OC[C@H]1O[C@@H](c2ccc(Cl)c(Cc3ccc(OC[C@H]4OCc5ccccc54)cc3)c2)[C@H](O)[C@@H](O)[C@@H]1O [Compound I-37, (2S,3R,4R,5S,6R)-2-(4-chloro-3-(4-(((S)-1,3-dihydroisobenzofuran-1-yl)methoxy)benzyl)phenyl)-6-(hydroxymethyl)tetrahydro-2H-pyran-3,4,5-triol] | 615 nM | 2 nM |
| OC[C@H]1O[C@@H](c2ccc(F)c(Cc3ccc(OCC4Cc5ccccc5O4)cc3)c2)[C@H](O)[C@@H](O)[C@@H]1O (stereo partly drawn) [Compound I-21, (2S,3R,4R,5S,6R)-2-(3-(4-((2,3-dihydrobenzofuran-2-yl)methoxy)benzyl)-4-fluorophenyl)-6-(hydroxymethyl)tetrahydro-2H-pyran-3,4,5-triol] | 4300 nM | 13 nM |
| Cc1ccc([C@@H]2O[C@H](CO)[C@@H](O)[C@H](O)[C@H]2O)cc1Cc1ccc(OCC2(C)OCc3ccccc32)cc1 (stereo partly drawn) [Compound I-112, (2S,3R,4R,5S,6R)-2-(3-(4-((1-methyl-1,3-dihydroisobenzofuran-1-yl)methoxy)benzyl)-4-methylphenyl)-6-(hydroxymethyl)tetrahydro-2H-pyran-3,4,5-triol] | 179 nM | 8 nM |
| Cc1ccc([C@@H]2O[C@H](CO)[C@@H](O)[C@H](O)[C@H]2O)cc1Cc1ccc(OC[C@@H]2Cc3ccccc3O2)cc1 [Compound I-26, (2S,3R,4R,5S,6R)-2-(3-(4-(((S)-2,3-dihydrobenzofuran-2-yl)methoxy)benzyl)-4-methylphenyl)-6-(hydroxymethyl)tetrahydro-2H-pyran-3,4,5-triol] | 95 nM | 2.7 nM |
| OC[C@H]1O[C@@H](c2ccc(Cl)c(Cc3ccc(OCc4cc5ccc(F)cc5o4)cc3)c2)[C@H](O)[C@@H](O)[C@@H]1O [Compound I-9, (2S,3R,4R,5S,6R)-2-(4-chloro-3-(4-((6-fluorobenzofuran-2-yl)methoxy)benzyl)phenyl)-6-(hydroxymethyl)tetrahydro-2H-pyran-3,4,5-triol] | 151 nM | 13 nM |
| OC[C@H]1O[C@@H](c2ccc(Cl)c(Cc3ccc(OC[C@H]4Cc5ccccc5O4)cc3)c2)[C@H](O)[C@@H](O)[C@@H]1O [Compound I-24, (2S,3R,4R,5S,6R)-2-(4-chloro-3-(4-(((R)-2,3-dihydrobenzofuran-2-yl)methoxy)benzyl)phenyl)-6-(hydroxymethyl)tetrahydro-2H-pyran-3,4,5-triol] | 1190 nM | 4.3 nM |
| Cc1ccc([C@@H]2O[C@H](CO)[C@@H](O)[C@H](O)[C@H]2O)cc1Cc1ccc(OCC2(C)OCc3ccccc32)cc1 (single isomer, unassigned) [Compound I-114] | 997 nM | 5.2 nM |
| OC[C@H]1O[C@@H](c2cccc(Cc3ccc(OCc4cc5ccccc5o4)cc3)c2)[C@H](O)[C@@H](O)[C@@H]1O [Compound I-6, (2S,3R,4R,5S,6R)-2-(3-(4-(benzofuran-2-ylmethoxy)benzyl)phenyl)-6-(hydroxymethyl)tetrahydro-2H-pyran-3,4,5-triol] |  | 36 nM |
| CC1(COc2ccc(Cc3cc([C@@H]4O[C@H](CO)[C@@H](O)[C@H](O)[C@H]4O)ccc3Cl)cc2)OCc2ccccc21 (single isomer, unassigned) [Compound I-115] | 725 nM | 12.7 nM |
| CC1(COc2ccc(Cc3cc([C@@H]4O[C@H](CO)[C@@H](O)[C@H](O)[C@H]4O)ccc3Cl)cc2)OCc2ccccc21 (stereo partly drawn) [Compound I-108, (2S,3R,4R,5S,6R)-2-(4-chloro-3-(4-((1-methyl-1,3-dihydroisobenzofuran-1-yl)methoxy)benzyl)phenyl)-6-(hydroxymethyl)tetrahydro-2H-pyran-3,4,5-triol] | 1810 nM | 10.2 nM |
| OC[C@H]1O[C@@H](c2ccc(F)c(Cc3ccc(OCc4cc5ccccc5o4)cc3)c2)[C@H](O)[C@@H](O)[C@@H]1O [Compound I-2, (2S,3R,4R,5S,6R)-2-(3-(4-(benzofuran-2-ylmethoxy)benzyl)-4-fluorophenyl)-6-(hydroxymethyl)tetrahydro-2H-pyran-3,4,5-triol] | 2540 nM | 15 nM |
| CC1(C)OC(COc2ccc(Cc3cc([C@@H]4O[C@H](CO)[C@@H](O)[C@H](O)[C@H]4O)ccc3Cl)cc2)c2ccccc21 (stereo partly drawn) [Compound I-63, (2S,3R,4R,5S,6R)-2-(4-chloro-3-(4-((3,3-dimethyl-1,3-dihydroisobenzofuran-1-yl)methoxy)benzyl)phenyl)-6-(hydroxymethyl)tetrahydro-2H-pyran-3,4,5-triol] |  | 5.6 nM |
| OC[C@H]1O[C@@H](c2ccc(Cl)c(Cc3ccc(OCCC4Cc5ccccc5O4)cc3)c2)[C@H](O)[C@@H](O)[C@@H]1O (stereo partly drawn) [Compound I-60, (2S,3R,4R,5S,6R)-2-(4-chloro-3-(4-(2-(2,3-dihydrobenzofuran-2-yl)ethoxy)benzyl)phenyl)-6-(hydroxymethyl)tetrahydro-2H-pyran-3,4,5-triol] |  | 38 nM |
